Structures can show the parent of a compound that is named as a salt. Starred links: 1 amine or outer side, 2 acyl side, 3 side chain; linkers in the order of their positions; H or OH if unused. Positions of bridges follow the written chain, without caps; N, C: chain ends. Non-standard residues stand in square brackets, D forms with d. Residues, ends and D or L forms follow the SMILES beside them. Chains are numbered I, II in the order given. Actinocin(9to1) = Cc1c2oc3c(C)ccc(C(=O)[*:1])c3nc-2c(C(=O)[*:2])c(N)c1=O; NMeV = CN[C@H](C(=O)O)C(C)C; Sar = CNCC(=O)O
Legend:
Type in all cases: cell-based, human
[1] = system: PBMCs from CLL patients; experiment: Primary screening of FDA approved drug library, TitreGlo/CellTiter-Glo cell viability, PBMCs from CLL patients; conditions: compound 10 uM, PBMCs from CLL patients, average over patients, relative to high control (0%) and no-cell low control (100%); for inhibition at 10 µM: Homo sapiens, PBMC, read-out: % Inhibition, CLL Average
Description: (§1) Whole blood was taken from experimental group patients and control group patients. The collected blood was transferred to EDTA tubes with a 5 mL pipette and a pipette aid and then to each EDTA tubes corresponding 50 ml centrifuge tubes. All the blood from one patient was placed into 1 tube (50 mL) and an equal volume of PBS was added to the 50 mL centrifuge tube. The sample was then mixed by either inverting the tube or pipetting up & down. The blood was transferred into tow 50 mL leucosep tube and centrifuged at room temperature (18-20° C.) for 15 minutes at 800×g with the brake turned off and acceleration at 2/deceleration at zero. After centrifugation, the white cell interface (buffy coat) was removed by pasture pipette and transferred to the new appropriately labelled 50 ml centrifuge tube. 25 mL PBS was added to the white cell interface (buffy coat) and the mix was centrifuged for 10 minutes at room temperature at 400×g with the brake off and acceleration at 4 & deceleration at 2. The supernatant was discarded from the pellet carefully in an appropriate manner. The pellet was washed another time with 20 mL by centrifugation for 5 minutes as above. The pellet was re-suspended in 5 mL and cells were counted using V-Cell. The cells were then either used directly as fresh for screening or frozen in liquid nitrogen in 10% DMSO/RPMPI media until use.
(§2) The assay used for TitreGlo (Promega) to measure cell viability based on the ATP production. […] The assay was developed in a 384-well plate with 2500 cell/well in 50 uL total volume. Alternatively, the assay could be developed in a 96-well plate with 10,000 cells/well. […] Z′ as a statistics factor was calculated as follows:
(§3) Each compound from the ENZO FDA SCREEN-WELL® FDA approved drug library V2 (0.10 μl in 100% DMSO) was transferred to white, 384-well, PS, Cellstar plates (Greiner Bio-One) using the Echo® Liquid Handler (Labcyte Inc.). Each plate contained one column for the High/Low Controls. The Low Control (1% DMSO v/v in column 23, no cells) and the High Control (final 1% DMSO v/v in column 24, with cells) were employed to calculate the Z′ for each assay plate. […] At 24 h post seeding, baseline growth was assessed using a control plate and CellTiter-Glo (CTG) reagent (Promega Corporation). Briefly, 20 μL/well of CTG detection mix was added and plates were read using an EnVision Multimode plate reader (PerkinElmer) after 10 min incubation in the dark. The raw luminescence signal was normalized in ActivityBase XE with outliers in control wells eliminated according to the 3-sigma method to yield percentage of cell viability by using the High Control (HC) containing cells in 1% DMSO v/v (Carl Roth) and the Low Control containing 1% DMSO v/v (Carl Roth). All Medium-Throughput Screening experiments were performed in duplicate for each patient. […] The raw luminescence signal was processed using Graph Pad Prism (Graph Pad Software Inc.) with outliers in control wells eliminated according to the 3-sigma method. The dose-response curves were analyzed using a 4 parameter sigmoidal fit to obtain plausible results in the case non-sigmoidal dose-response curves.
(§4) The Screen-Well FDA approved drug library was screened, which contains 780 approved drugs. […] The final DMSO concentration in the assay plate was 0.1% of total volume. […] The average of all four control samples was then calculated and used to determine the positive “hits” in patients' samples.
(§5) Each average patient samples were plotted against average of the control samples to identify the positive hits.

[2] = system: PBMCs from ALL patients; experiment: Primary screening of FDA approved drug library, TitreGlo/CellTiter-Glo cell viability, PBMCs from ALL patients; conditions: compound 10 uM, PBMCs from ALL patients, average over patients, relative to high control (0%) and no-cell low control (100%); for inhibition at 10 µM: Homo sapiens, PBMC, read-out: % Inhibition, ALL Average
Description: as §1, §2, §3, §4, §5

[3] = system: PBMCs from CML patients; experiment: Primary screening of FDA approved drug library, TitreGlo/CellTiter-Glo cell viability, PBMCs from CML patients; conditions: compound 10 uM, PBMCs from CML patients, average over patients, relative to high control (0%) and no-cell low control (100%); for inhibition at 10 µM: Homo sapiens, PBMC, read-out: % Inhibition, CML Average
Description: as §1, §2, §3, §5
Samples from 4 patients were screened against the FDA approved drug library where the Negative Control (High control) contained cells treated with DMSO and the Positive Control (Low control) were based using no cells. The screening was carried out in 96 well plates. The raw luminescence counts were normalized and the % Inhibition was calculated relative to the high control (0% Inhibition) and the low control (100% Inhibition).

[4] = system: PBMCs from AML patients; experiment: Primary screening of FDA approved drug library, TitreGlo/CellTiter-Glo cell viability, PBMCs from AML patients; conditions: compound 10 uM, PBMCs from AML patients, average over patients, relative to high control (0%) and no-cell low control (100%); for inhibition at 10 µM: Homo sapiens, PBMC, read-out: % Inhibition, AML Average
Description: as §1, §2, §3, §4, §5

SMILES	inhibition at 10 µM [1] [%]	inhibition at 10 µM [2] [%]	inhibition at 10 µM [3] [%]	inhibition at 10 µM [4] [%]	% Inhibition, CLL Average [1] [%]	% Inhibition, ALL Average [2] [%]	% Inhibition, CML Average [3] [%]	% Inhibition, AML Average [4] [%]
CC(C)(C)C(=O)OCOP(=O)(COCCn1cnc2c(N)ncnc21)OCOC(=O)C(C)(C)C [Adcfovir Dipivoxil]	43.9	96	63.7	72.8	–	–	–	–
CN1CCc2cccc3c2[C@H]1Cc1ccc(O)c(O)c1-3 [Apomorphine HCl Hemihydrate]	27.9	37.3	89.4	39.5	–	–	–	–
CC(=O)OC[C@H]1O[C@@H]([S-])[C@H](OC(C)=O)[C@@H](OC(C)=O)[C@@H]1OC(C)=O.CCP(CC)CC.[Au+] [Auranofin]	–	–	–	–	96.0	102.9	94.9	96.7
Clc1ccc(CCC(Cn2ccnc2)Sc2c(Cl)cccc2Cl)cc1 (stereo not drawn) [Butoconazole Nitrate]	44.1	40.7	58.5	46.6	–	–	–	–
[H]/N=C(\N/C(=N/[H])NCCCCCCNC(=N)NC(=N)Nc1ccc(Cl)cc1)Nc1ccc(Cl)cc1 [Chlorhexidine Dihydrochloride]	70.3	53.6	59.9	26.9	–	–	–	–
C[C@@H](NCCCc1cccc(C(F)(F)F)c1)c1cccc2ccccc12 [Cinacalcet HCl]	28.6	41.9	63.3	43.2	–	–	–	–
Nc1nc(Cl)nc2c1ncn2[C@@H]1O[C@H](CO)[C@@H](O)[C@@H]1F [Clofarabine]	41.3	68.1	21.9	-20.6	–	–	–	–
Nc1ccn([C@@H]2O[C@H](CO)[C@@H](O)[C@@H]2O)c(=O)n1 [Cytarabine]	26.6	49.2	58.8	66.1	–	–	–	–
Cc1c2oc3c(C)ccc(C(=O)N[C@@H]4C(=O)N[C@H](C(C)C)C(=O)N5CCC[C@H]5C(=O)N(C)CC(=O)N(C)[C@@H](C(C)C)C(=O)O[C@@H]4C)c3nc-2c(C(=O)N[C@@H]2C(=O)N[C@H](C(C)C)C(=O)N3CCC[C@H]3C(=O)N(C)CC(=O)N(C)[C@@H](C(C)C)C(=O)O[C@@H]2C)c(N)c1=O [Dactinomycin (=Actinomycin D), Dactinomycin] (I: T[dV]P[Sar][NMeV] / II: T[dV]P[Sar][NMeV]; ester I:1-I:C, II:1-II:C; linker I:N-II:N via Actinocin(9to1))	42.9	66.5	24.4	60.4	–	–	–	–
COc1cccc2c1C(=O)c1c(O)c3c(c(O)c1C2=O)C[C@@](O)(C(C)=O)C[C@@H]3O[C@H]1C[C@H](N)[C@H](O)[C@H](C)O1 [Daunorubicin HCl]	65.5	78.4	67.6	64	–	–	–	–
C[C@H]1O[C@@H](O[C@H]2[C@@H](O)C[C@H](O[C@H]3[C@@H](O)C[C@H](O[C@H]4CC[C@@]5(C)[C@H](CC[C@@H]6[C@@H]5C[C@@H](O)[C@]5(C)[C@@H](C7=CC(=O)OC7)CC[C@]65O)C4)O[C@@H]3C)O[C@@H]2C)C[C@H](O)[C@@H]1O [Digoxin]	30.1	32	76.8	-33.2	–	–	–	–
CCN(CC)C(=S)SSC(=S)N(CC)CC [Disulfiram]	-45.4	91.5	92.4	64	–	–	–	–
CN(C)CCCN1c2ccccc2CCc2ccccc21 [Imipramine HCl]	–	-6	13.7	1.9	–	–	–	–
CO[C@H]1/C=C/O[C@@]2(C)Oc3c(C)c(O)c4c(O)c(c(/C=N/N5CCN(C6CCCC6)CC5)c(O)c4c3C2=O)NC(=O)/C(C)=C\C=C\[C@H](C)[C@H](O)[C@@H](C)[C@@H](O)[C@@H](C)[C@H](OC(C)=O)[C@@H]1C [Rifapentine]	12.3	–	76.5	-3.2	–	–	–	–

Reference: patent publication US10639382B2, “Method for treating leukemia” (National Guard Health Affairs, priority 2017, dated 2020)
